Blank lines part the entries; values can stand above or below the molecule they belong to.
How the values were obtained:
Rat [1] = assay: concentration in plasma after dosing; details: dosed: Wyeth-14643, 2.0 mg/kg, iv, Male, Sprague-Dawley
Rat [2] = assay: concentration in liver after dosing; details: 40 min; dosed: Bis 2-Chloroethoxy Methane; 20 mg/kg; iv; Female; F344
Rat [3] = assay: concentration in heart after dosing; details: 3 h; dosed: Bis 2-Chloroethoxy Methane; 20 mg/kg; iv; Female; F344
Rat [4] = assay: concentration in heart after dosing; details: 3 h; dosed: Bis 2-Chloroethoxy Methane; 20 mg/kg; iv; Male; F344
Rat [5] = assay: concentration in heart after dosing; details: 20 min; dosed: Bis 2-Chloroethoxy Methane; 20 mg/kg; iv; Female; F344
Rat [6] = assay: concentration in heart after dosing; details: 20 min; dosed: Bis 2-Chloroethoxy Methane; 20 mg/kg; iv; Male; F344
Rat [7] = assay: concentration in heart after dosing; details: 5 h; dosed: Bis 2-Chloroethoxy Methane; 20 mg/kg; iv; Female; F344
Rat [8] = assay: concentration in plasma after dosing; details: 20 min; dosed: Bis 2-Chloroethoxy Methane; 20 mg/kg; iv; Male; F344
Rat [9] = assay: concentration in thymus after dosing; details: 6 h; dosed: Bis 2-Chloroethoxy Methane; 20 mg/kg; iv; Male; F344
Rat [10] = assay: concentration in plasma after dosing; details: 40 min; dosed: Bis 2-Chloroethoxy Methane; 20 mg/kg; iv; Male; F344
Rat [11] = assay: concentration in plasma after dosing; details: 3 h; dosed: Bis 2-Chloroethoxy Methane; 20 mg/kg; iv; Male; F344
Rat [12] = assay: concentration in thymus after dosing; details: 2 h; dosed: Bis 2-Chloroethoxy Methane; 20 mg/kg; iv; Male; F344
Rat [13] = assay: concentration in plasma after dosing; details: 4 h; dosed: Bis 2-Chloroethoxy Methane; 20 mg/kg; iv; Male; F344
Rat [14] = assay: concentration in thymus after dosing; details: 20 min; dosed: Bis 2-Chloroethoxy Methane; 20 mg/kg; iv; Male; F344
Rat [15] = assay: concentration in brain after dosing; details: 3 h; dosed: Fluorotelomer alcohol 8+2; 80 mg/kg; oral; Female; Harlan Sprague Dawley
Rat [16] = assay: concentration in brain after dosing; details: 3 h; dosed: Fluorotelomer alcohol 8+2; 24 mg/kg; oral; Male; Harlan Sprague Dawley
Rat [17] = assay: concentration in plasma after dosing; details: dosed: Fluorotelomer alcohol 8+2, 12 mg/kg, oral, Male, Harlan Sprague Dawley
Rat [18] = assay: concentration in plasma after dosing; details: dosed: Fluorotelomer alcohol 8+2, 12 mg/kg, iv, Male, F344
Rat [19] = assay: concentration in plasma after dosing; details: 10 h; dosed: Di-n-butyl phthalate; 100 mg/kg; oral; Male; Sprague-Dawley
Rat [20] = assay: concentration in plasma after dosing; details: 10 h; dosed: Di-n-butyl phthalate; 50 mg/kg; oral; Male; Sprague-Dawley
Rat [21] = assay: concentration in plasma after dosing; details: 0.5 h; dosed: Di-n-butyl phthalate; 50 mg/kg; oral; Male; Sprague-Dawley
Rat [22] = assay: concentration in plasma after dosing; details: 20 h; dosed: Di-n-butyl phthalate; 100 mg/kg; oral; Male; Sprague-Dawley
Rat [23] = assay: concentration in liver after dosing; details: 1 h; dosed: Perfluorodecanoic acid; 10 mg/kg; oral; Female; Harlan Sprague Dawley
Rat [24] = assay: concentration in plasma after dosing; details: dosed: Perfluorodecanoic acid, 2 mg/kg, iv, Male, F344
Rat [25] = assay: concentration in plasma after dosing; details: dosed: Perfluorodecanoic acid, 2 mg/kg, iv, Male, F344; remark: listed apart in the source
Rat [26] = assay: concentration in plasma after dosing; details: dosed: Perfluorodecanoic acid, 2 mg/kg, iv, Male, F344; remark: listed apart in the source
Rat [27] = assay: concentration in plasma after dosing; details: 9 h; dosed: Primidone; 80 mg/kg; oral; Male; F344
Rat [28] = assay: concentration in plasma after dosing; details: 0.5 h; dosed: Primidone; 80 mg/kg; oral; Female; Harlan Sprague-Dawley
Rat [29] = assay: concentration in liver after dosing; details: 5.333 h; dosed: Thiodiglycolic Acid; 20 mg/kg; iv; Female; Harlan Sprague Dawley
Rat [30] = assay: concentration in heart after dosing; details: 10 h; dosed: Thiodiglycolic Acid; 20 mg/kg; iv; Male; F344
Rat [31] = assay: concentration in liver after dosing; details: 40 min; dosed: Thiodiglycolic Acid; 20 mg/kg; iv; Female; Harlan Sprague Dawley
Rat [32] = assay: concentration in thymus after dosing; details: 6.667 h; dosed: Thiodiglycolic Acid; 20 mg/kg; iv; Female; Harlan Sprague Dawley
Rat [33] = assay: concentration in plasma after dosing; details: 5.333 h; dosed: Thiodiglycolic Acid; 20 mg/kg; iv; Male; Harlan Sprague Dawley
Rat [34] = assay: concentration in thymus after dosing; details: 5.333 h; dosed: Thiodiglycolic Acid; 20 mg/kg; iv; Female; Harlan Sprague Dawley
Rat [35] = assay: concentration in thymus after dosing; details: 6.667 h; dosed: Thiodiglycolic Acid; 20 mg/kg; iv; Female; Harlan Sprague Dawley; remark: listed apart in the source
Rat [36] = assay: concentration in thymus after dosing; details: 8 h; dosed: Thiodiglycolic Acid; 20 mg/kg; iv; Female; Harlan Sprague Dawley
Rat [37] = assay: concentration in plasma after dosing; details: dosed: dichloroacetic acid, 40 mg/kg, oral, Female, Harlan Sprague Dawley
Rat [38] = assay: concentration in plasma after dosing; details: 20 min; dosed: dichloroacetic acid; 10 mg/kg; iv; Male; F344
Rat [39] = assay: concentration in plasma after dosing; details: dosed: dichloroacetic acid, 40 mg/kg, oral, Female, Harlan Sprague Dawley; remark: listed apart in the source

concentration in plasma (Rat [1]; 0.5 h): 5200 ng/mL
concentration in plasma (Rat [1]; 3 h): 338 ng/mL
Structure (SMILES): Cc1cccc(Nc2cc(Cl)nc(SCC(=O)O)n2)c1C

Structure (SMILES): ClCCOCOCCCl [Bis 2-Chloroethoxy Methane]
concentration in liver (Rat [2]): 734 ng/g
concentration in heart (Rat [3]): 124 ng/g
concentration in heart (Rat [4]): 116 ng/g
concentration in heart (Rat [5]): 6490 ng/g
concentration in heart (Rat [6]): 7220 ng/g
concentration in heart (Rat [7]): 33 ng/g
concentration in plasma (Rat [8]): 5580 ng/mL
concentration in thymus (Rat [9]): 19.5 ng/g
concentration in plasma (Rat [10]): 1930 ng/mL
concentration in plasma (Rat [11]): 123 ng/mL
concentration in thymus (Rat [12]): 153 ng/g
concentration in plasma (Rat [13]): 118 ng/mL
concentration in thymus (Rat [14]): 26300 ng/g

concentration in brain (Rat [15]): 9550 ng/g
concentration in brain (Rat [16]): 1490 ng/g
concentration in plasma (Rat [17]; 0.75 h): 294 ng/mL
concentration in plasma (Rat [17]; 12 h): 4.64 ng/mL
concentration in plasma (Rat [18]; 0.5 h): 1220 ng/mL
concentration in plasma (Rat [18]; 9 h): 19.6 ng/mL
Structure (SMILES): OCCC(F)(F)C(F)(F)C(F)(F)C(F)(F)C(F)(F)C(F)(F)C(F)(F)C(F)(F)F [Fluorotelomer alcohol 8+2]

Structure (SMILES): CCCCOC(=O)c1ccccc1C(=O)O [Mono-n-butyl phthalate]
concentration in plasma (Rat [19]): 2010 ng/mL
concentration in plasma (Rat [20]): 1170 ng/mL
concentration in plasma (Rat [21]): 20500 ng/mL
concentration in plasma (Rat [22]): 414 ng/mL

Structure (SMILES): O=C(O)C(F)(F)C(F)(F)C(F)(F)C(F)(F)C(F)(F)C(F)(F)C(F)(F)C(F)(F)C(F)(F)F [Perfluorodecanoic acid]
concentration in liver (Rat [23]): 48900 ng/g
concentration in plasma (Rat [24]; 5 min): 8200 ng/mL
concentration in plasma (Rat [24]; 192 h): 3280 ng/mL
concentration in plasma (Rat [25]; 24 h): 5820 ng/mL
concentration in plasma (Rat [25]; 1848 h): 764 ng/mL
concentration in plasma (Rat [26]; 1 h): 6390 ng/mL
concentration in plasma (Rat [26]; 528 h): 2520 ng/mL
concentration in plasma (Rat [26]; 3360 h): 267 ng/mL

Structure (SMILES): CCC1(c2ccccc2)C(=O)NC(=O)NC1=O [Phenobarbital]
concentration in plasma (Rat [27]): 6800 ng/mL
concentration in plasma (Rat [28]): 1480 ng/mL

Structure (SMILES): O=C(O)CSCC(=O)O [Thiodiglycolic Acid]
concentration in liver (Rat [29]): 4800 ng/g
concentration in heart (Rat [30]): 483 ng/g
concentration in liver (Rat [31]): 92500 ng/g
concentration in thymus (Rat [32]): 245 ng/g
concentration in plasma (Rat [33]): 198 ng/mL
concentration in thymus (Rat [34]): 547 ng/g
concentration in thymus (Rat [35]): 263 ng/g
concentration in thymus (Rat [36]): 544 ng/g

Structure (SMILES): O=C(O)C(Cl)Cl [dichloroacetic acid]
concentration in plasma (Rat [37]; 20 min): 7440 ng/mL
concentration in plasma (Rat [37]; 2 h): 1060 ng/mL
concentration in plasma (Rat [38]): 2260 ng/mL
concentration in plasma (Rat [39]; 5 min): 5140 ng/mL
concentration in plasma (Rat [39]; 1.25 h): 4620 ng/mL
